From ChEMBL document CHEMBL2412968, “Tetrazole-based deoxyamodiaquines: synthesis, ADME/PK profiling and pharmacological evaluation as potential antimalarial agents” (Bioorg Med Chem, 2013)
In brackets after ≈: the same amount, converted by molar mass.

Tests used:
Plasmodium falciparum [1] = experiment: Antiplasmodial activity chloroquine-resistant Plasmodium falciparum K1 infected in human A+ erythrocytes assessed as reduction of [3H]hypoxanthine incorporation after 24 hrs by scintillation counting; type: functional, organism-based
Plasmodium falciparum [2] = experiment: Antiplasmodial activity chloroquine-resistant Plasmodium falciparum W2 using YOYO-1 staining after 48 hrs by FACS analysis; type: functional, organism-based; conditions: W2, 48 h
Plasmodium falciparum [3] = experiment: Antiplasmodial activity chloroquine-sensitive Plasmodium falciparum 3D7 infected in human A+ erythrocytes assessed as reduction of [3H]hypoxanthine incorporation after 24 hrs by scintillation counting; type: functional, organism-based
physchem [4] = conditions: phosphate buffered saline, pH 7.4
physchem [5] = conditions: 0.01 M HCl, pH 2

CCN(CC)Cc1cc(Nc2ccnc3cc(Cl)ccc23)ccc1O
IC50 (Plasmodium falciparum [1]): 27 nM | IC50 (Plasmodium falciparum [2]): 401 nM | IC50 (Plasmodium falciparum [3]): 1 nM

CCN(CC)C(c1cccc(Nc2ccnc3cc(Cl)ccc23)c1)c1nnn[nH]1 (stereo not drawn)
IC50 (Plasmodium falciparum [1]): 54 nM | solubility kinetic at 2 h (physchem [4]): 149 µM (≈ 60.8 µg/mL) | solubility kinetic at 2 h (physchem [5]): > 200 µM | IC50 (Plasmodium falciparum [2]): 475 nM | IC50 (Plasmodium falciparum [3]): 164 nM

Clc1ccc2c(Nc3cccc(C(c4nnn[nH]4)N4CCCC4)c3)ccnc2c1 (stereo not drawn)
IC50 (Plasmodium falciparum [1]): 49 nM | solubility kinetic at 2 h (physchem [4]): 150 µM (≈ 60.9 µg/mL) | solubility kinetic at 2 h (physchem [5]): > 200 µM | IC50 (Plasmodium falciparum [2]): 181 nM | IC50 (Plasmodium falciparum [3]): 1100 nM

CC(C)(C)n1nnnc1C(c1cccc(Nc2ccnc3cc(Cl)ccc23)c1)N1CCCCC1 (stereo not drawn)
IC50 (Plasmodium falciparum [1]): 170 nM | solubility kinetic at 2 h (physchem [4]): < 5 µM | solubility kinetic at 2 h (physchem [5]): > 200 µM | IC50 (Plasmodium falciparum [2]): 82 nM | IC50 (Plasmodium falciparum [3]): 50 nM
